Measurements reported in US11547709B2, “Methods of treating disorders associated with castor” (ST. JUDE CHILDREN'S RESEARCH HOSPITAL, INC., priority 2017, dated 2023).

Key:
Type in all cases: in vivo
[1] = system: Pcca−/−(A138T) mouse model of propionic acidemia; experiment: Blood ammonia levels in mouse model of propionic acidemia; details: chow with 225 ppm PZ-2891 plus 1000 ppm Pan for 7 days vs 1000 ppm Pan alone; p=0.0032
Description: Referring to FIG. 2, a mouse model of propionic acidemia, the Pcca−/−(A138T) (Guensel et al. (2013) Mol. Ther. 21: 1316-1323), was fed chow containing either 1000 ppm pantothenate (Pan) or 225 ppm PZ-2891 plus 1000 ppm Pan for 7 days. Blood was drawn from 6 mice per group and blood ammonia levels were determined using a GM7 Micro-Stat Analyser (Analox Instruments, www.analox.com) and the Analox Blood Ammonia Reagent kit according to the manufacturer's instructions. Statistical analysis was performed using the Students unpaired t-test and p=0.0032.

[2] = system: Pcca−/−(A138T) mouse model of propionic acidemia; experiment: Total liver CoA levels in Pcca mouse model; details: chow with 1000 ppm pantothenate plus 75 ppm PZ-3022 from day 21, measured at 70 days
Description: (§1) Referring to FIG. 4, a mouse model of propionic acidemia, the Pcca−/−(A138T) mouse (Guensel et al. (2013) Mol. Ther. 21: 1316-23) was fed chow or chow containing 1000 ppm pantothenate plus 75 ppm PZ-3022 beginning at day 21. At 70 days, the liver CoA levels were measured.

[3] = system: Pcca−/−(A138T) mouse model of propionic acidemia; experiment: Liver CoA, acetyl-CoA and propionyl-CoA levels in Pcca mouse model; details: chow with 1000 ppm pantothenate plus 75 ppm PZ-3022 from day 21, measured at 70 days
Description: Referring to FIG. 5, a mouse model of propionic acidemia, the Pcca−/−(A138T) (mouse Guensel et al. (2013) Mol. Ther. 21: 1316-23) was fed chow or chow containing 1000 ppm pantothenate plus 75 ppm PZ-3022 beginning at day 21. At 70 days, the liver CoA, acetyl-CoA and propionyl-CoA levels were measured. The Pcca mice had lower free CoA, lower acetyl-CoA and very elevated propionyl-CoA compared to wild-type.

[4] = system: Pcca−/−(A138T) mouse model of propionic acidemia; experiment: Plasma acyl-carnitine levels in Pcca mouse model; details: chow with 1000 ppm pantothenate plus 75 ppm PZ-3022 from day 21, plasma at 70 days
Description: as §1, with “6A and FIG. 6B,” for “4,”, “(mouse Guensel” for “mouse (Guensel”, “plasma was analyzed for the” for “liver CoA”, “of acyl-carnitines.” for “were measured.”
Referring to FIG. 7, the data in FIG. 5 are presented as the C3:C2 ration of plasma carnitines.

Compound	blood ammonia levels [1]	liver CoA levels (total) [2]	liver acetyl-CoA [3]	liver free CoA [3]	liver propionyl-CoA [3]	C3:C2 ratio of plasma carnitines [4]	plasma acetyl-carnitine [4]
CC(C)c1ccc(CC(=O)N2CCN(c3ccc(C#N)nn3)CC2)cc1 [PZ-2891]	Reduction of Blood Ammonia Levels						
N#Cc1ccc(N2CCN(C(=O)Cc3ccc(C4CC4)cc3)CC2)nn1 [PZ-3022]		the CoA levels were elevated	elevated free CoA and acetyl-CoA	elevated free CoA	propionyl-CoA was reduced	reduced the highly elevated C3:C2 ratio	elevated acetyl-carnitine
